Earlier results, collected in US9198859B2, “Concentrated mast cell stabilizing pharmaceutical formulations” (PARI Pharma GMBH, priority 2009, dated 2015).

How the values were obtained:
[1] = tested on: respiratory syncytial virus; conditions: mice
[2] = 6 months; nebulized 3 times daily IsoCrom (20 mg/2 ml) via eFlow; children
[3] = tested on: influenza virus; conditions: mice

O=C(O)c1cc(=O)c2c(OCC(O)COc3cccc4oc(C(=O)O)cc(=O)c34)cccc2o1 [DSCG, disodium cromoglycate]
protection against RSV induced illness [1]: protected against respiratory syncytial virus induced illness
therapeutic efficacy versus inhaled steroids [2]: as effective as inhaled steroids
protection from death induced by influenza virus infection [3]: protected mice from death
